From US20250101025A1, “NOVEL PLK1 DEGRADATION INDUCING COMPOUND” (UPPTHERA, INC., priority 2021, published 2025)
Read-outs that look alike come from different tables or passages of the source.

How the values were obtained:
Format in all cases: cell-based
H526 cell line = test: Cell viability assay for NCI-H526 cell line (EZ-Cytox); conditions: Homo sapiens, NCI-H526, 120 h; H526 cells, 3-fold dilutions 3000 nM to 0.46 nM, 5 days
Description: (1) Culture of NCI-H526 Cell Line
(2) Treatment of Compounds of the Present Invention and Method of Cell Viability Assay
After treating the compound to each well to make the total volume of 200 μL, it was cultured in a CO2 incubator (Thermo Fisher Science, Cat. No. 4111) for 5 days.
The absorbance of the completely cultured sample was measured by setting the wavelength of a plate reader (BMG Labtech, CLARIOstar Plus) to […], and was measured after shaking for 3 minutes in a plate reader before measurement.
In Table 3, Activity represents IC50 value of each Exemplary Compound treatment group to H526 cell line (A: <30 nM, B: <50 nM, C: <100 nM, D: <200 nM, E: <400 nM).

PLK1 = molecular target: T1, PLK1 (Homo sapiens, UniProt P53350); test: Luciferase assay for PLK1 in HeLa LgBit (Plk1-HiBit KI) cell line; conditions: compound 300 nM, luminescence after 9 hours
T1 construct: endogenous in cells; host or cells: HeLa LgBit (Plk1-HiBit KI): HeLa stably expressing LgBit, with HiBit knocked in at the endogenous Plk1 locus by CRISPR/Cas9
T1 sequence (P53350 whole entry): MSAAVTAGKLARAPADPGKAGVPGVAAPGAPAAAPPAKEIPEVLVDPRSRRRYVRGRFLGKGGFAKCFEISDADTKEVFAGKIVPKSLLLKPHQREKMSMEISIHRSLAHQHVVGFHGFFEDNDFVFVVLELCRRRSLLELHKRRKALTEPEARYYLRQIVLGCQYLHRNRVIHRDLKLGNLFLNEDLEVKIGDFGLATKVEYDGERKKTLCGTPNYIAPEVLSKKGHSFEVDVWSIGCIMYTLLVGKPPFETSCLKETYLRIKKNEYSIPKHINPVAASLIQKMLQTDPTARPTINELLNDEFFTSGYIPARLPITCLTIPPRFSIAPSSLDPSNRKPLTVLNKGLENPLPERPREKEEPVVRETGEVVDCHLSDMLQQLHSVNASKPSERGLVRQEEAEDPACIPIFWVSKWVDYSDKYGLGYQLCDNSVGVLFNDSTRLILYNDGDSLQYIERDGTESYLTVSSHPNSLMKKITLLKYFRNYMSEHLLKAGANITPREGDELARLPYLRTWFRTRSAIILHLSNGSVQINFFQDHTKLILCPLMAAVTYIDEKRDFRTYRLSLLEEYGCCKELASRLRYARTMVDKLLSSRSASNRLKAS
Description: 2. Luciferase Assay for PLK1
(1) Preparation and Culture of HeLa LgBit (Plk1-HiBit KI) Cell Line
A HeLa cell line in which the LgBit vector was transfected and expressed stably was prepared. Then, after constructing gRNA and donor to express the HiBit amino acid sequence behind the C-terminal of the Plk1 gene, which was inherent in the cell, it was inserted into the cell together with a vector capable of expressing CRISPR/Cas9. Only the cells in which the insertion was completed and knock-in had progressed were selected, sub-cultured and used.
(2) Treatment of Compounds of the Present Invention and Method of Luciferase Assay
In the case of HeLa LgBit (Plk1-HiBit KI), the compounds were treated after being released after thymidine block, and the process was as follows. Thymidine (Sigma-Aldrich Cat. No. T9250-5G) was completely dissolved in DW and used in the experiment. For thymidine block, the products were treated with 2 mM of thymidine and then incubated for 24 hours. For release and chemical treatment, the medium was suctioned and washed with 1×PBS. TrypLE™ was added and incubated in 37° C. CO2 incubator for 5 min. Cells neutralized by adding complete media were counted through a counter. For each well of a 96-well culture plate (SPL), 3.3×10^4 cells and a total medium volume of 150 μL were seeded and incubated in a CO2 incubator.
Each cell line was incubated in a CO2 incubator for 18 hours, and Endurazine was added to each well to make up 4% of the total volume. After adding the compound of the present invention in a 96-well white plate (SPL) to a concentration of 300 nM, the wavelength of the plate reader (BMG Labtech, CLARIOstar Plus) was set to […], and then the luminescence was tracked in real time.
In Table 2, Activity represents the ratio of the luminescence value of each Exemplary Compound treatment group to DMSO treatment group (+++: <0.3, ++<0.6, +<0.7).

MRC-5 cell line = test: Cell viability assay for MRC-5 cell line (EZ-Cytox cytotoxicity experiment); conditions: Homo sapiens, MRC5, 120 h, MRC-5 normal cell line, 5 days
Description: 4. Cell Viability Assay for MRC-5 Cell Line
(1) Culture of MRC-5 Cell Line
Passage of cultured cells was maintained within P15.
(2) Treatment of Compounds of the Present Invention
Then, it was cultured in 37° C.
(3) Cytotoxicity Experiment
CO2 incubator for 4 hours.

[1] = highest concentration 10000 nM, N.D. = no cytotoxicity until 10 μM, read-out: Activity: IC50 value to MRC-5 cell line, N.D. cells
[2] = 3-fold dilutions 10000 nM to 1.52 nM, Exemplary Compounds, numeric values, read-out: Activity: IC50 value (nM) to MRC-5 cell line

Row | SMILES | IC50 (H526 cell line) [µM] | Activity: ratio of the luminescence value of each Exemplary Compound treatment group to DMSO treatment group (PLK1) | IC50 (MRC-5 cell line; [1]) [nM] | IC50 (MRC-5 cell line; [2]) [nM]
1 | COc1cc(C(=O)NN2CCC(CCN3CCN(c4ccc(NC5CCC(=O)NC5=O)cc4F)CC3)CC2)ccc1Nc1ncc2c(n1)N(C1CCCC1)CC(F)(F)C(=O)N2C (stereo not drawn) [Compound 22, 4-((9-cyclopentyl-7,7-difluoro-5-methyl-6-oxo-6,7,8,9-tetrahydro-5H-pyrimido[4,5-b][1,4]diazepin-2-yl)amino)-N-(4-(2-(4-(4-((2,6-dioxopiperidin-3-yl)amino)-2-fluorophenyl)piperazin-1-yl)ethyl)piperidin-1-yl)-3-methoxybenzamide] | < 0.03 | +++ (+++: <0.3) | > 10000 | –
2 | COc1cc(C(=O)NC2CC3(CCN(CC4CCN(c5ccc(N(C)C6CCC(=O)NC6=O)cc5F)CC4)CC3)C2)ccc1Nc1ncc2c(n1)N(C(C)C)CC(F)(F)C(=O)N2C (stereo not drawn) [Compound 26, 4-((7,7-difluoro-9-isopropyl-5-methyl-6-oxo-6,7,8,9-tetrahydro-5H-pyrimido[4,5-b][1,4]diazepin-2-yl)amino)-N-(7-((1-(4-((2,6-dioxopiperidin-3-yl)(methyl)amino)-2-fluorophenyl)piperidin-4-yl)methyl)-7-azaspiro[3.5]nonan-2-yl)-3-methoxybenzamide] | < 0.05 | +++ (+++: <0.3) | – | 6550
3 | COc1cc(C(=O)NC2CCN(CCC3CCN(c4cccc5c4n(C)c(=O)n5C4CCC(=O)NC4=O)CC3)CC2)ccc1Nc1ncc2c(n1)N(C1CCCC1)CC(F)(F)C(=O)N2C (stereo not drawn) [Compound 37, 4-((9-cyclopentyl-7,7-difluoro-5-methyl-6-oxo-6,7,8,9-tetrahydro-5H-pyrimido[4,5-b][1,4]diazepin-2-yl)amino)-N-(1-(2-(1-(1-(2,6-dioxopiperidin-3-yl)-3-methyl-2-oxo-2,3-dihydro-1H-benzo[d]imidazol-4-yl)piperidin-4-yl)ethyl)piperidin-4-yl)-3-methoxybenzamide] | < 0.05 | ++ (++<0.6) | > 10000 | –
4 | COc1cc(C(=O)NC2CCN(C(=O)CCN3CCN(c4cccc(NC5CCC(=O)NC5=O)c4)CC3)CC2)ccc1Nc1ncc2c(n1)N(C1CCCC1)CC(F)(F)C(=O)N2C (stereo not drawn) [Compound 14, 4-((9-cyclopentyl-7,7-difluoro-5-methyl-6-oxo-6,7,8,9-tetrahydro-5H-pyrimido[4,5-b][1,4]diazepin-2-yl)amino)-N-(1-(3-(4-(3-((2,6-dioxopiperidin-3-yl)amino)phenyl)piperazin-1-yl)propanoyl)piperidin-4-yl)-3-methoxybenzamide] | < 0.03 | ++ (++<0.6) | > 10000 | –
5 | COc1cc(C(=O)NC2CC3(CCN(CC4CCN(c5cccc6c5n(C)c(=O)n6C5CCC(=O)NC5=O)CC4)CC3)C2)ccc1Nc1ncc2c(n1)N(C(C)C)CC(F)(F)C(=O)N2C (stereo not drawn) [Compound 38, 4-((7,7-difluoro-9-isopropyl-5-methyl-6-oxo-6,7,8,9-tetrahydro-5H-pyrimido[4,5-b][1,4]diazepin-2-yl)amino)-N-(7-((1-(1-(2,6-dioxopiperidin-3-yl)-3-methyl-2-oxo-2,3-dihydro-1H-benzo[d]imidazol-4-yl)piperidin-4-yl)methyl)-7-azaspiro[3.5]nonan-2-yl)-3-methoxybenzamide] | < 0.03 | ++ (++<0.6) | – | 3960
6 | COc1cc(C(=O)NC2CC3(CCN(CC4CCN(c5ccc(OC6CCC(=O)NC6=O)cc5)CC4)CC3)C2)ccc1Nc1ncc2c(n1)N(C(C)C)CC(F)(F)C(=O)N2C (stereo not drawn) [Compound 36, 4-((7,7-difluoro-9-isopropyl-5-methyl-6-oxo-6,7,8,9-tetrahydro-5H-pyrimido[4,5-b][1,4]diazepin-2-yl)amino)-N-(7-((1-(4-((2,6-dioxopiperidin-3-yl)oxy)phenyl)piperidin-4-yl)methyl)-7-azaspiro[3.5]nonan-2-yl)-3-methoxybenzamide] | < 0.03 | +++ (+++: <0.3) | – | 9800
7 | COc1cc(C(=O)NN2CCC(CN3CCN(c4c(F)cc(NC5CCC(=O)NC5=O)cc4F)CC3)CC2)ccc1Nc1ncc2c(n1)N(C(C)C)CC(F)(F)C(=O)N2C (stereo not drawn) [Compound 18, 4-((7,7-difluoro-9-isopropyl-5-methyl-6-oxo-6,7,8,9-tetrahydro-5H-pyrimido[4,5-b][1,4]diazepin-2-yl)amino)-N-(4-((4-(4-((2,6-dioxopiperidin-3-yl)amino)-2,6-difluorophenyl)piperazin-1-yl)methyl)piperidin-1-yl)-3-methoxybenzamide] | < 0.03 | + (+<0.7) | > 10000 | –
8 | COc1cc(C(=O)NC2CCC(N(C)CC3CCN(c4ccc(NC5CCC(=O)NC5=O)cc4F)CC3)CC2)ccc1Nc1ncc2c(n1)N(C1CCCC1)CC(F)(F)C(=O)N2C (stereo not drawn) [Compound 34, 4-((9-cyclopentyl-7,7-difluoro-5-methyl-6-oxo-6,7,8,9-tetrahydro-5H-pyrimido[4,5-b][1,4]diazepin-2-yl)amino)-N-((1r,4r)-4-(((1-(4-((2,6-dioxopiperidin-3-yl)amino)-2-fluorophenyl)piperidin-4-yl)methyl)(methyl)amino)cyclohexyl)-3-methoxybenzamide] | < 0.03 | +++ (+++: <0.3) | > 10000 | –
9 | COc1cc(C(=O)NN2CCC(CN3CCN(c4cccc(C(=O)NC5CCC(=O)NC5=O)c4)CC3)CC2)ccc1Nc1ncc2c(n1)N(C1CCCC1)CC(F)(F)C(=O)N2C (stereo not drawn) [Compound 9, 4-((9-cyclopentyl-7,7-difluoro-5-methyl-6-oxo-6,7,8,9-tetrahydro-5H-pyrimido[4,5-b][1,4]diazepin-2-yl)amino)-N-(4-((4-(3-((2,6-dioxopiperidin-3-yl)carbamoyl)phenyl)piperazin-1-yl)methyl)piperidin-1-yl)-3-methoxybenzamide] | < 0.05 | ++ (++<0.6) | > 10000 | –
10 | COc1cc(C(=O)NC2CCN(C(=O)CCCNc3ccc(C(=O)NC4CCC(=O)NC4=O)cc3)CC2)c(F)cc1Nc1ncc2c(n1)N(C1CCCC1)CC(F)(F)C(=O)N2C (stereo not drawn) [Compound 1, 4-((9-cyclopentyl-7,7-difluoro-5-methyl-6-oxo-6,7,8,9-tetrahydro-5H-pyrimido[4,5-b][1,4]diazepin-2-yl)amino)-N-(1-(4-((4-((2,6-dioxopiperidin-3-yl)carbamoyl)phenyl)amino)butanoyl)piperidin-4-yl)-2-fluoro-5-methoxybenzamide] | < 0.05 | ++ (++<0.6) | > 10000 | –
11 | COc1cc(C(=O)NC2CC3(CCN(CC4CCN(c5ccc(NC6CCC(=O)NC6=O)cc5)CC4)CC3)C2)ccc1Nc1ncc2c(n1)N(C(C)C)CC(F)(F)C(=O)N2C (stereo not drawn) [Compound 28, 4-((7,7-difluoro-9-isopropyl-5-methyl-6-oxo-6,7,8,9-tetrahydro-5H-pyrimido[4,5-b][1,4]diazepin-2-yl)amino)-N-(7-((1-(4-((2,6-dioxopiperidin-3-yl)amino)phenyl)piperidin-4-yl)methyl)-7-azaspiro[3.5]nonan-2-yl)-3-methoxybenzamide] | < 0.03 | ++ (++<0.6) | – | 10200
